Assay [1] concerns sodium ion current in A549 cells (deglycosylated cell surface). Put plainly: Patch clamp assay, whole cell mode, on A549 cells deglycosylated with PNGase F. Format: cell-based, human. Conditions: 240 nM peptide, Eh -100 mV; for Whole cell current, pre-treatment with PNGase F: A549. As to the method: In whole cell mode experiments as described above, A549 cells were incubated with “PNGase enzyme F” (Peptide-N^4-(N-acetyl-β-D-glucosaminyl)asparagine amidase F) 100 units for 1-5 minutes immediately prior to the patch clamp measurements and glass cover slips with the cultured cells were rinsed with external solution before being transferred to the chamber of the 1 mL bath.
The results of the deglycosylation experiments using the patch clamp assay in whole cell mode are presented in Table IV, wherein the effect of deglycosylation of A549 cells on activation of sodium ion current by peptides of SEQ ID NO:1 to SEQ ID NO:7 is indicated. Whole cell currents were recorded at Eh=−100 mV.
Background: In patch-clamp work, channel activity is measured electrically.

Assay [2] relates to sodium ion current in A549 cell line. Conditions: for activity on sodium ion current (in words): A549, patch clamp. As to the method:
Experiments were carried out on the human epithelial cell line A549 (ATTAC Nr. CCL-185) in passages 80-90. Cells were grown in Dulbecco's modified Eagle's medium/nutrient mixture F12 Ham, supplemented with 10% fetal bovine serum and containing 1% penicillin-streptomycin. All culture media were purchased from Sigma-Aldrich GmbH (St. Louis, MO).
Currents were recorded with the patch clamp method in the whole-cell mode. Glass cover slips with the cultured cells were transferred to a chamber of 1 ml capacity, mounted on the stage of an inverted microscope (Zeiss, Axiovert 100). The chamber contained 1 ml of the bath solution of the following composition (in mM): 145 NaCl, 2.7 KCl, 1.8 CaCl2), 2 MgCl2, 5.5 glucose and 10 HEPES, adjusted to pH 7.4 with 1 M NaOH solution. Micropipettes were pulled from thin-walled borosilicate glass capillaries (World Precision Instruments, Inc., FL, USA) with a Flaming Brown micropipette puller (P87, Sutter Instruments, CA, USA) and polished on a microforge (Narishige, Tokyo, Japan) to obtain electrode resistances ranging from 2.0 to 3.5 MΩ. […] Chemicals for pipette and bathing solutions were supplied by Sigma-Aldrich (Vienna, Austria). Electrophysiological measurements were carried out with an Axopatch 200B patch clamp amplifier (Axon Instruments, CA, USA). Capacity transients were cancelled, and series resistance was compensated. Whole cell currents were filtered at 5 kHz and sampled at 10 KHz. Data acquisition and storage were processed directly to a PC equipped with pCLAMP 10.0 software (Axon Instruments, CA, USA).
After GΩ-seal formation, the equilibration period of 5 min was followed by control recordings at holding potentials (Eh) between −100 and +100 mV in 20 mV increments for 1 min at each Eh. […] The wash-in phase lasted about 1 min. […] Concentration-response curves and EC50-values were fitted and estimated for currents recorded at Eh of −100 mV with SigmaPlot 9.0. […] Subsequent addition of 10 mM tetraethylammonium chloride (TEA) indicated whether any observed increases in the current were due to potassium current. […]

Assay [3] concerns non-ischemic pig donor lung. The experiment in a line: Ex vivo lung perfusion (EVLP) of non-ischemic pig donor lungs, inhalative application. Conditions: pulmonary application. As to the method: Brain death pigs were turned into dorsal position, and a longitudinal sternotomy was performed. The pericardium and both pleural cavities were opened. […] An inflow catheter was placed in the pulmonary artery through a purse-string on the right ventricular outflow tract.
The lungs (non-ischemic) were then preserved with an ante grade flush of cold isotonic preservation solution (50 ml per kg body weigh of pig, containing potassium ions, sodium ions, magnesium ions, calcium ions, chloride ions, dextran, glucose, buffering ions) through the inflow catheter. Incision of the left auricular appendix provides outflow. The lungs were ventilated during this period with 50% oxygen, and iced slush were placed in both pleural cavities and mediastinum.
The explanation technique was en bloc harvesting with heart and esophagus according to the following steps: • a) Dissection of soft tissue bridges to the thoracic cavity on both sides of the trachea. • b) Transsection of both pulmonal ligaments (very deep, difficult exposure), then of the VCI, the lower thoracic descendent aorta and the esophagus, respectively. • c) Blunt separation from remaining mediastinal adhesions. • d) Complete inflation of the donor lung prior of tracheal closure with a stapler.
After explantation, the lungs were wrapped in gauze, placed in an insulated ice bag filled with low-potassium dextran extracellular solution, and stored at 4° C. for 18 to 24 hours. A temperature probe was submerged in the container, which will be placed in a refrigerator.
For ex-vivo lung conditioning, the EVLP technique ([…]) was used. In the EVLP technique, donor lungs are placed into a circuit composed of a pump, ventilator and filters. EVLP technique, the temperature may increased up to 37 °C. In the EVLP, a ventilator is used to deliver oxygen to the lungs. The pump is used to perfuse the lungs with an extracellular solution containing human albumin and nutrition. During EVLP, the lung function can be evaluated regularly on key indicators. […]

Assay [4] has as its system sodium ion current in A549 cells (deglycosylated cell surface). Put plainly: Patch clamp assay, whole cell mode, on A549 cells deglycosylated with PNGase F. Particulars: 240 nM peptide, Eh -100 mV. Format: cell-based, human.

Where two headings read alike, the source gives them in different places. Bridges are numbered along the chain shown (N, C = ends). Where no end group is shown, it is not given here.

Turning to `C[C@@H]1NC(=O)CNC(=O)[C@H](CCC(=O)O)NC(=O)[C@@H]2CCCN2C(=O)[C@H]([C@@H](C)O)NC(=O)[C@H](CCC(=O)O)NC(=O)[C@H](CCCNC(=N)N)NC(=O)[C@H](CCC(N)=O)NC(=O)CNC(=O)[C@@H]2CCCN2C(=O)[C@H](CO)NC(=O)[C@@H](N)CCCCNC(=O)CC[C@@H](C(=O)O)NC(=O)[C@H](Cc2ccc(O)cc2)NC(=O)[C@H](Cc2c[nH]c3ccccc23)NC(=O)[C@@H]2CCCN2C(=O)[C@H](CCCCN)NC(=O)[C@H](C)NC(=O)[C@H](CCC(=O)O)NC1=O` [SEQ ID NO: 2], the “Whole cell current, pre-treatment with PNGase F” value in assay [1] was 21.3 pA (n = 3).

Turning to `C[C@@H]1NC(=O)CNC(=O)[C@H](CCC(=O)O)NC(=O)[C@@H]2CCCN2C(=O)[C@H]([C@@H](C)O)NC(=O)[C@H](CCC(=O)O)NC(=O)[C@H](CCCNC(=N)N)NC(=O)[C@H](CCC(N)=O)NC(=O)CNC(=O)[C@@H](N)CCCCNC(=O)CNC(=O)[C@H](Cc2ccc(O)cc2)NC(=O)[C@H](Cc2c[nH]c3ccccc23)NC(=O)[C@@H]2CCCN2C(=O)[C@H](CCCCN)NC(=O)[C@H](C)NC(=O)[C@H](CCC(=O)O)NC1=O` [SEQ ID NO: 3], the “Whole cell current, pre-treatment with PNGase F” value in assay [1] is reported as 20.6 pA (n = 3).

`C[C@@H]1NC(=O)CNC(=O)[C@H](CCC(=O)O)NC(=O)[C@@H]2CCCN2C(=O)[C@H]([C@@H](C)O)NC(=O)[C@H](CCC(=O)O)NC(=O)[C@H](CCCNC(=N)N)NC(=O)[C@H](CCC(N)=O)NC(=O)CNC(=O)[C@@H](N)CCCNC(=O)CNC(=O)[C@H](Cc2ccc(O)cc2)NC(=O)[C@H](Cc2c[nH]c3ccccc23)NC(=O)[C@@H]2CCCN2C(=O)[C@H](CCCCN)NC(=O)[C@H](C)NC(=O)[C@H](CCC(=O)O)NC1=O` [SEQ ID NO: 4]: the “Whole cell current, pre-treatment with PNGase F” value in assay [1] was 22.5 pA (n = 3).

As to `C[C@@H]1NC(=O)CNC(=O)[C@H](CCC(=O)O)NC(=O)[C@@H]2CCCN2C(=O)[C@H]([C@@H](C)O)NC(=O)[C@H](CCC(=O)O)NC(=O)[C@H](CCCNC(=N)N)NC(=O)[C@H](CCC(N)=O)NC(=O)CNC(=O)CCCNC(=O)C[C@@H](C(=O)O)NC(=O)[C@H](Cc2ccc(O)cc2)NC(=O)[C@H](Cc2c[nH]c3ccccc23)NC(=O)[C@@H]2CCCN2C(=O)[C@H](CCCCN)NC(=O)[C@H](C)NC(=O)[C@H](CCC(=O)O)NC1=O` [SEQ ID NO: 5], the “Whole cell current, pre-treatment with PNGase F” value in assay [1] was 22.4 pA (n = 3).

For `C[C@@H]1NC(=O)CNC(=O)[C@H](CCC(=O)O)NC(=O)[C@@H]2CCCN2C(=O)[C@H]([C@@H](C)O)NC(=O)[C@H](CCC(=O)O)NC(=O)[C@H](CCCNC(=N)N)NC(=O)[C@H](CCC(N)=O)NC(=O)CNC(=O)CCNC(=O)CC[C@@H](C(=O)O)NC(=O)[C@H](Cc2ccc(O)cc2)NC(=O)[C@H](Cc2c[nH]c3ccccc23)NC(=O)[C@@H]2CCCN2C(=O)[C@H](CCCCN)NC(=O)[C@H](C)NC(=O)[C@H](CCC(=O)O)NC1=O` [SEQ ID NO: 6], the “Whole cell current, pre-treatment with PNGase F” value in assay [1] was 19.9 pA (n = 3).

Consider “Cyclo(CGQREAPAGAAAKPWYC) (disulfide 1-17) [SEQ ID NO: 7, reference compound]”, for which the “activity on sodium ion current (in words)” value in assay [2] is “no activity”. In assay [2] (listed as SEQ ID NO:7), the “activity on sodium ion current (in words)” value is reported as “did not show activity”. Further, in assay [2] (A549, whole cell recording, Eh -100 mV), the “EC50 (nM) on cellular sodium ion current” value was “no activity”. Also, in assay [1], the “activity in deglycosylation experiments (in words)” value is “no activity” and the “Whole cell current, pre-treatment with PNGase F” value is “no avtivity”. For the same compound, the “effects on lung function” value in assay [3] was “did not provide improving effects”. For the same compound, the “Whole cell current, no pre-treatment with PNGase F” value in assay [4] was “no activity”.

For the origin of these results see patent US12004506B2, “Pharmaceutical composition comprising a cyclic peptide of formula X1-[sequence]-X2 and use for extracorporeal lung treatment” (priority 2013, dated 2024).
